Measured values as given in US12606805B2, “Tymovirus virus and virus-like particles as nanocarriers for imaging and therapeutic agents” (priority 2017, dated 2026).

What was measured:
[1] = tested on: A2780 (human ovarian cancer) cells; assay: MTT cell viability assay, DOX-PhMV versus DOX; format: cell-based; settings: 24 h
Experimental: All assays were carried out at least three times.

PhMV-derived VLPs = biological target: T1, PhMV-derived VLPs (Physalis mottle virus, UniProt P36351); settings: for Number of molecules loaded per VLP: 5000-fold molar excess per particle; for Number of guest molecules loaded per VLP (affinity of the VLPs): infusion overnight at room temperature, molar excess 500 to 10,000 per VLP
T1 construct: The coat protein gene (564 bp) was inserted into the vector pRSET-A and expressed in ClearColi BL21(DE3); made in house; host or cells: E. coli ClearColi BL21(DE3)
T1 sequence (P36351 whole entry, the tested form may be a part): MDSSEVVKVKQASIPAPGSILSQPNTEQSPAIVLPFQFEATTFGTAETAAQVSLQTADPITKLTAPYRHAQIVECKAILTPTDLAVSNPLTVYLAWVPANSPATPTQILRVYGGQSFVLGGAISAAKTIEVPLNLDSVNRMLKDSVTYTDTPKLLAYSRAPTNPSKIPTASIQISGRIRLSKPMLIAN
Experimental: The VLPs were loaded with rhodamine B, fluorescein, crystal violet, MTX dihydrochloride (all Sigma-Aldrich), PS (cationic zinc ethynylphenyl porphyrin, full name 5-(4-ethynylphenyl)-10,15,20-tris)4-methylpyridin-4-ium-1-yl)porphyrin zinc(II) triiodide), or DOX hydrochloride (Indofine Chemical Company). The VLPs (1 mg/mL in KP buffer) were incubated with a molar excess of 500, 2500, 5000, or 10000 cargo molecules per particle overnight at room temperature in the dark, before purification over a 30% (w/v) sucrose cushion to remove excess reagents by ultracentrifugation at 52,000 rpm using a TLA 55 rotor (Beckman Coulter Inc.) at 4° C. for 1 h. PS-PhMV and DOX-PhMV were synthesized for further characterization using a 5000-fold molar excess.
A NanoDrop 2000 spectrophotometer (Thermo Fisher Scientific) was used to characterize the UV/visible spectra of native and modified VLPs. The dye load was determined using the protein concentration (measured using the Bradford assay), the Beer-Lambert law and the following dye-specific extinction coefficients: rhodamine B, F(553 nm)=116,000 M^−1 cm^−1; DOX, ε(496 nm)=11,500 M^−1 cm^−1; crystal violet, ε(590 nm)=87,000 M^−1 cm^−1; PS, ε(450 nm)=195,000 M^−1 cm^−1; MTX, ε(622 nm)=25,000 M^−1 cm^−1; sulfo-Cy5 NHS ester, ε(646 nm)=271,000 M^−1 cm^−1; Cy5.5-maleimide, 8(673 nm)=209,000 M^−1 cm^−1. The following molecular weights were used: PhMV=4.7×10^6 g mol^−1; rhodamine B=479.02 g mol^−1; DOX=579.98 g mol^−1; crystal violet=407.98 g mol^−1; PS=1130 g mol^−1; mitoxantrone=517.4 g mol^−1; Cy5=777.95 g mol^−1; Cy5.5=741.36 g mol^−1; Biotin NHS ester=341.38 g mol^−1; Biotin maleimide=451.54 g mol^−1.
Intact VLPs were incubated in a bathing solution containing the guest molecule at various molar excesses (500, 2500, 5000 and 10,000 molecules per VLP) in KP buffer with 10% (v/v) DMSO overnight at room temperature. After the reaction, excess guest molecules were removed by ultracentrifugation and the amount of protein and cargo was quantified by the Bradford assay and UV/visible spectroscopy, respectively. We applied the Beer-Lambert law and the specific extinction coefficient of each guest molecule to determine the number of cargo molecules per VLP (FIG. 5).

PC-3 cells [2] = assay: MTT cell viability assay after photodynamic therapy
Experimental: PC-3 cells were seeded (5000 cells/100 μL RPMI 1640/well) in a 96-well plate overnight. After two PBS washes to remove unbound and dead cells, free PS, or PS-PhMV was added to the cells in triplicate at concentrations of 0.01, 0.025, 0.05, 0.1, 0.25, 0.5, 1, 2.5 and 5.0 μM PS, and incubated for 8 h. Untreated cells and cells treated with unloaded VLPs at the equivalent protein concentration to PS-PhMV particles at the highest dose of PS were also used as controls. Free particles were washed with PBS and 100 μL of fresh medium was added. The cells were then illuminated with white light for 30 min as above. In parallel, a duplicate plate was prepared and kept in the dark as a negative control. Following phototherapy, cells were incubated for another 48 h in the dark, and their viability was subsequently measured using an MTT cell proliferation assay kit (ATCC) based on the manufacturer's instructions. A Tecan Infinite 200 PRO multimode plate reader was used to measure absorbance at 570 nm, and the percent cell viability was normalized to the untreated control. All assays were carried out at least three times.

PC-3 cells [3] = assay: LIVE/DEAD assay after photodynamic therapy; format: cell-based, human
Experimental: PC-3 cells were seeded (20,000 cells/500 μL RPMI/well) in a 24-well plate overnight. The cells were washed twice in PBS and incubated for 8 h in triplicates with 5.0 μM PS, 5.0 μM PS-PhMV, or the corresponding concentration of unloaded VLPs ([…] or ˜0.19 mg/mL). After washing twice in PBS, 500 μL RPMI medium was added. Photodynamic therapy was then applied using a white light source (Phillips Silhouette High Output F39T5/841 HO, Alto collection, ˜10 mW cm^−2) for 30 min (18.1 J cm^−2 at 430 nm) and cells were incubated for a further 48 h in the dark. Cell viability was determined using a LIVE/DEAD assay for mammalian cells (Thermo Fisher Scientific) following the manufacturer's procedures for cell staining, and cells were observed under a Zeiss Axio Observer Z1 motorized FL inverted microscope.

Structure (SMILES)	Number of molecules loaded per VLP (PhMV-derived VLPs)	Number of guest molecules loaded per VLP (affinity of the VLPs) (PhMV-derived VLPs) [molecules per particle]	other results
COc1cccc2c1C(=O)c1c(O)c3c(c(O)c1C2=O)C[C@@](O)(C(=O)CO)C[C@@H]3O[C@H]1C[C@H](N)[C@H](O)[C@H](C)O1 [DOX, doxorubicin]	600-800 molecules per VLP	750	IC50 (MTT) [1]: equivalent
O=C1c2c(O)ccc(O)c2C(=O)c2c(NCCNCCO)ccc(NCCNCCO)c21 [MTX, mitoxantrone]		450	
C#Cc1ccc(C2=C3C=CC(=N3)C(c3cc[n+](C)cc3)=c3ccc4[n]3[Zn][n]3c2ccc3C(c2cc[n+](C)cc2)=C2C=CC(=N2)C=4c2cc[n+](C)cc2)cc1.[I-].[I-].[I-] [PS]	160-180 molecules per VLP	~200	Cytotoxicity of dark controls (MTT) (PC-3 cells [2]; PC-3 cells kept in the dark): no cell killing; IC50 (PC-3 cells [2]; read-out: IC50 (cell killing, MTT), PC-3 cells, 8 h incubation, 30 min white light illumination): 50 nM; Cell viability (LIVE/DEAD), dark controls (PC-3 cells [3]; 5.0 μM, 8 h, maintained in the dark): 100%; Cell viability (LIVE/DEAD), illuminated (PC-3 cells [3]; 5.0 μM, 8 h, white light 30 min): 0%; Cytotoxicity of dark controls (LIVE/DEAD) (PC-3 cells [3]; dark controls): no cytotoxicity
CN(C)c1ccc(C(=C2C=CC(=[N+](C)C)C=C2)c2ccc(N(C)C)cc2)cc1 [crystal violet]		2000	
CCN(CC)c1ccc2c(-c3ccccc3C(=O)O)c3ccc(=[N+](CC)CC)cc-3oc2c1.[Cl-] [rhodamine B]		~200	
